Laboratory results reported in patent US20220089602A1, “COMPOUNDS THAT INDUCE FERROPTIC CELL DEATH” (The Board of Trustees of the University of Illinois, priority 2019, published 2022).
“Also recorded” adds a separate entry of the source.

Experiments:
ES-2 cell line = test: 72 hr cell viability assay (Alamar Blue), dose response IC50; assay type: cell-based; conditions: Homo sapiens; 72 hr, ES-2 cell line, Alamar Blue fluorescence, mean ± s.e.m., n ≥ 3
Protocol: 40 μL of media was added to each well of a 384-well tissue culture-treated plate. 3×100 nL of compound in DMSO was then pin-transferred from compound storage plates (2 mM stocks) into media-containing wells using the Platemate Plus at the UIUC High Throughput Screening Facility. A 100,000 cells/mL suspension of ES-2 cells was prepared, and 10 μL was added to each well for a final concentration of 1000 cells/well. Doxorubicin (100 μM final) was used as a positive control. Plates were sealed with gas-permeable seals and incubated at 37° C. for 72 h. After incubation, 5 μL of Alamar blue (440 μM resazurin in sterile PBS) was added and allowed to incubate for 3-4 h, until visible color change occurred. Fluorescence was measured in a Molecular Devices SpectraMax 3 (excitation=555 nm, emission=585 nm, emission cutoff=570 nm).
To a 384-well plate, 40 μL of 1.25× compound dilution or 1.25% DMSO-containing media was added (final volume of 1% DMSO). Concentrations of compounds tested were 100 μM to 100 nM. On each plate at least 3 technical replicates per compound were performed. Next, 10 μL of a 100,000 cells/mL suspension was added to each well, yielding a final concentration of 1,000 cells/well. To three wells in column 2 was added 1 μL of 10 mM doxorubicin (final concentration of 200 μM) as positive control of cell death. Plates were sealed with gas-permeable seals and incubated at 37° C. for 72 h. At that time, 5 μL of Alamar blue (440 μM resazurin in sterile PBS) was added and plates were incubated for 3-4 hours. Fluorescence was read on a Molecular Devices SpectraMax 3 (excitation=555 nm, emission=585 nm, emission cutoff=570 nm). Wells were normalized to the average of untreated wells (0% cell death). The data were plotted as compound concentration versus percent dead cells and fitted to a logistic-dose response curve using OriginPro 2015 (OriginLab, Northampton, Mass.). The data were generated in triplicate, and IC50 values are reported as the average of three separate experiments along with standard error of the mean.

red blood cells = test: Hemolysis assay; assay type: cell-based, human; conditions: 2 hr treatment with 333 μM
Protocol: Whole human blood in citrate phosphate dextrose was obtained from Bioreclamation LLC, stored at 4° C. and used before expiration date. 100 μL of whole blood was combined with 500 μL saline (0.9% NaCl) and centrifuged for 5 min at 300×g. The supernatant was carefully removed from the erythrocyte pellet and the liquid was discarded. Washed pellet 3× in 500 μL saline. The erythrocyte pellet was resuspended in 800 μL of Red Blood Cell Buffer (10 mM Na2HPO4, 150 mM NaCl, 1 mM MgCl2, pH 7.4). To a 0.5 mL eppendorf tube or a PCR plate was added 1.0 μL of 30× compound in DMSO and 19 μL RBC Buffer. For negative controls, 1.0 μL DMSO was combined with 19 μL RBC buffer. For positive controls, either 20 μL MilliQ H2O or 1.0 μL 30% Triton X-100 were combined with 19 μL RBC Buffer. Tubes or plates were briefly centrifuged. Next, 10 μL of washed erythrocyte suspension was added to each tube, then sealed. After incubation at 37° C. for 2 h, samples were centrifuged for 5 min at 300×g, and 20 μL of supernatant was carefully removed and transferred to wells of a clear flat-bottomed 384-well plate. Absorbance was measured at 540 nm. The data were plotted as compound concentration versus percent hemolysis, and fitted to OriginPro (OriginLab, Northampton, Mass.).

HCT 116 cells [1] = test: In-gel fluorescence proteome labeling; assay type: cell-based; conditions: 30 min dose-dependent treatment
Protocol: Cells were harvested by centrifugation (500×g, 3 min), washed with PBS, and resuspended in RIPA lysis buffer (50 mM Tris, 150 mM NaCl, 1% Triton X-100, 0.5% sodium deoxycholate, 0.1% SDS, pH=7.4) containing 1× protease inhibitor cocktail on ice. Protein concentration was determined by the Bradford assay and lysates were stored at −20° C. until further use. Samples were resolved in a 4-20% SDS-PAGE gel (Bio-Rad) at 120 V for 70 min. After PBS washes, each gel was scanned for fluorescence signal using a Molecular Dynamics Typhoon 9400 Multilaser Scanner at the Proteomics Center at UIUC (excitation at 526 nm, green laser, high sensitivity, 530 pmt). Gels were then treated with Coomassie Blue stain (Imperial Stain, ThermoFisher) via shaking for 45 min to stain for the total protein content. Upon proteome labeling, gels were destained for 15 min-overnight on MilliQ H2O followed by imaging in a Gel Dox XR+ from Bio-Rad (ex. 470 nm, UV High filter).

A549 cells = test: Protection studies against ferroptocide-induced cell death, AV/PI; assay type: cell-based; conditions: pre-treatment with protecting agent
Protocol: (§1) ES-2, HCT 116, Mia PaCa-2, A549, and 4T1 cells (1×10^5 cells/mL) were plated overnight in 12 well plates, prior to addition of compounds. For protection studies, samples were pre-treated with each protecting agent such as 25 μM Q-VD-OPh, 250 μM trolox, 2 μM ferrostatin-1, 5 mM NAC-1 (neutralized pH), or 100 μM deferoxamine (DFO) for two hours or 1 hr (NAC-1) before compound addition. Cells were incubated for the appropriate times and harvested for flow cytometry analysis. Cell pellets were resuspended in binding buffer (10 mM HEPES, pH 7.4, 140 mM NaCl, 2.5 mM CaCl2) containing 2 μg/mL propidium iodide and 5 μL/mL Annexin V-FITC conjugate antibody and analyzed for cell viability after gating for forward and side scattering. Ten thousand events were collected per sample in BD LSR II Flow Cytometer (BD Bioscience) and FCS express V6, De Novo software was used to perform experimental analysis.

HCT 116 cells [2] = test: as above; assay type: cell-based; conditions: pre-treatment with protecting agent
Protocol: Cells were incubated for the appropriate times and harvested for flow cytometry analysis. Cell pellets were resuspended in binding buffer (10 mM HEPES, pH 7.4, 140 mM NaCl, 2.5 mM CaCl2) containing 2 μg/mL propidium iodide and 5 μL/mL Annexin V-FITC conjugate antibody and analyzed for cell viability after gating for forward and side scattering. Ten thousand events were collected per sample in BD LSR II Flow Cytometer (BD Bioscience) and FCS express V6, De Novo software was used to perform experimental analysis.

ES-2 cells = test: as above; assay type: cell-based; conditions: pre-treatment with protecting agent
Protocol: as §1

4T1 cells = test: as above; assay type: cell-based, murine; conditions: pre-treatment with protecting agent
Protocol: as §1

| SMILES | IC50 (ES-2 cell line) | hemolytic activity (red blood cells) | proteome labeling selectivity (HCT 116 cells [1]) | protection against ferroptocide-induced cell death (A549 cells) | protection against ferroptocide-induced cell death (HCT 116 cells [2]) | protection against ferroptocide-induced cell death (ES-2 cells) | protection against ferroptocide-induced cell death (4T1 cells) |
| --- | --- | --- | --- | --- | --- | --- | --- |
| C=CC(=C)[C@@H]1C[C@@H](OC(=O)CCl)[C@]2(C)[C@H](C)CC[C@]3(C[C@H](O)C(=O)[C@]32O)[C@H]1C [Compound P4] | 6.7 µM | no signs of hemolytic activity; also recorded: Lack of hemolytic activity | – | – | – | – | – |
| CC1=CC(C)=[N+]2C1=Cc1ccc(CCC(=O)NCCCn3cc(CN4C(=O)C5CC=C([C@@H]6C[C@@H](OC(=O)CI)[C@]7(C)[C@H](C)CC[C@]8(C[C@H](O)C(=O)[C@]87O)[C@H]6C)CC5C4=O)nn3)n1[B-]2(F)F (stereo partly drawn) [Compound P31] | – | – | Promiscuous bioactivity | – | – | – | – |
| CC(=O)N[C@@H](CS)C(=O)O [NAC-1, N-acteyl cysteine] | – | – | – | protection from ferroptocide- and TBHP-induced cell death | protection from ferroptocide- and TBHP-induced cell death | – | – |
| CC(C)[C@H](NC(=O)c1ccc2ccccc2n1)C(=O)N[C@@H](CC(=O)O)C(=O)COc1c(F)cccc1F [Q-VD-OPh] | – | – | – | – | does not protect against ferroptocide-induced cell death | does not protect against ferroptocide-induced cell death | – |
| Cc1c(C)c2c(c(C)c1O)CCC(C)(C(=O)O)O2 (stereo not drawn) [trolox] | – | – | – | significantly protected against ferroptocide-induced cell death | significantly protected against ferroptocide-induced cell death | significantly protected against ferroptocide-induced cell death | significantly protected against ferroptocide-induced cell death |
| CCOC(=O)c1ccc(NC2CCCCC2)c(N)c1 [ferrostatin-1] | – | – | – | significantly protected against ferroptocide-induced cell death | significantly protected against ferroptocide-induced cell death | significantly protected against ferroptocide-induced cell death | significantly protected against ferroptocide-induced cell death |
